Measured values from patent US12213978B2, “Madrasin-derivative compounds, composition and uses thereof for treating cancer” (INSTITUT GUSTAVE ROUSSY, priority 2018, dated 2025).

How the values were obtained:
[1] = system: MCA205 sarcoma cells expressing the intron-derived SL8 antigen; assay: T-cell assay: B3Z specific T-cell activation by MCA205 cells expressing the intron-derived SL8 antigen; type: cell-based, mouse
Method: (§1) MCA205 mouse sarcoma cell line is cultured at 37° C. under 5% CO2 in RPMI 1640 medium (Life Technologies) in the presence of 1% glutamine, 1% sodium pyruvate, 1% non-essential amino-acids, 1% penicillin/streptomycin and 10% FBS (Life Technologies). B16F10 mouse melanoma cell line is cultured at 37° C. under 5% CO2 in DMEM medium (Life Technologies) containing 1% glutamine, 1% penicillin/streptomycin and 10% FCS under standard conditions. Stable MCA205-Globin-SL8-intron cell line are cultured under the same condition as MCA205 cell line with additional 500 μg/ml G418 (Life Technologies) for selection. Stable B16F10-Globin-SL8-intron cell line are cultured under the same condition as B16F10 cell line with additional 500 μg/ml G418 (Life Technologies) for selection. The SL8/Kb-specific (B3Z) T-cell reporter hybridoma are cultured at 37° C. under 5% CO2 in RPMI 1640 medium (Life Technologies) in the presence of 1% L-glutamine, 1% penicillin/streptomycin, 50 μM β-mercaptoéthanol and 10% FCS.
(§2) MCA205 and B16F10 mouse cell lines are transfected with the plasmid YFP-Globin-SL8-intron or with the PCDNA3 empty plasmid (negative control) with the transfection reagent jetPRIME (Ozyme) or GeneJuice (Millipore) respectively according to each manufacturer protocol. Twenty-four hours after transfection, cells are treated with different doses of Madrasin (Sigma SML 1409), Madra.HCl (3·HCl) or the different compounds herein cited. Cells are then washed three times with PBS 1× and 5.10^4 tumor cells are co-cultured with 1.10^5 B3Z hybridoma in a 96-well plate. In positive control wells, 4 μg/ml of synthetic peptide SL8 is added. Cells are then incubated overnight at 37° C. with 5% CO2. The plate is centrifuged at 1200 rpm for 5 min, cells are washed twice with PBS 1× and lysed for 5 min at 4° C. under shaking in 0.2% TritonX-100, 0.2% DTT, 0.5M K2HPO4, 0.5M KH2PO4. The lysate is centrifuged at 3000 rpm for 10 min and the supernatant is transferred to a 96-well optiplate (OptiPlaque-96, PerkinElmer). A revelation buffer containing 10 mM MgCl2, 11.2 mM β-mercaptoethanol, 0.0015% IGEPAL® CA-630 and 40 μM 4-Methylumbelliferyl β-D-Galactopyranoside (MUG) in PBS is added and the plate is incubated at room temperature for 3 hours. Finally, the β-galactosidase activity is measured using the FLUOstar OPTIMA (BMG LABTECH Gmbh, 30 Offenburg, Germany). Results are expressed as mean±SEM. *P<0.05, **P<0.01, ***P<0.001 (unpaired student t test).

[2] = system: B16F10 melanoma cells expressing the intron-derived SL8 antigen; assay: T-cell assay: B3Z specific T-cell activation by B16F10 cells expressing the intron-derived SL8 antigen; type: cell-based, mouse
Method: as §1, §2

[3] = system: MCA205 sarcoma cells expressing the globin-SL8-intron construct; assay: Tumor challenge: MCA205 globin-SL8-intron tumors in immunocompetent C57BL/6 mice; type: in vivo, mouse; details: for survivors: 120 days after tumor inoculation
Method: (§3) Wild type MCA205 sarcoma cells or MCA205 sarcoma cells expressing the globin-SL8-intron construct (MCA205 globin-SL8-intron) were subcutaneously inoculated into the flank of immunocompetent C57BL/6 mice subsequently injected intraperitoneally with 20 mg/kg or 40 mg/kg of Madra.HCl at day 4, 7, 10 and 14 post tumor inoculation. Tumor size was assessed every 3 to 4 days until the established ethical endpoints were reached. The panel C represents the growth curve of MCA205 sarcoma cells expressing the globin-SL8-intron construct (MCA205 globin-SL8-intron), the panel D represents the tumor size at day 25. The panel E represents the growth curve of Wild type MCA205 sarcoma cells (MCA205 WT), the panel F represents the tumor size at day 21. Data are given as mean±SEM. *p<0.05, **p<0.01 (ANOVA with Tukey's multiple comparison test comparing all groups).
(§4) Wild type MCA205 sarcoma cells or MCA205 sarcoma cells expressing the globin-SL8-intron construct (MCA205 globin-SL8-intron) were subcutaneously inoculated into the flank of immunocompetent C57BL/6 mice subsequently injected intraperitoneally with 20 mg/kg of EYP59 at day 4, 7, 10 and 14 post tumor inoculation. Tumor size was assessed every 3 to 4 days until the established ethical endpoints were reached (A). The upper panel B represents the growth curve of MCA205 sarcoma cells expressing the globin-SL8-intron construct (MCA205 globin-SL8-intron), the lower panel B represents the tumor size at day 23. The upper panel C represents the growth curve of Wild type MCA205 sarcoma cells (MCA205 WT), the lower panel C represents the tumor size at day 19. The panel D represents the growth curve of Wild type MCA205 sarcoma cells (MCA205 WT) in immunodeficient nu/nu mice with the same settings as previously described for the immunocompetent mice. Data are given as mean±SEM. *p<0.05, **p<0.01 (ANOVA with Tukey's multiple comparison test comparing all groups).
(§5) C57Bl/6J female mice are obtained from Harlan Laboratories Ltd, Switzerland. 7 week-old mice are injected subcutaneously into the right flank with 1.10^5 MCA205 sarcoma or B16F10 melanoma cells or 1.5.10^5 MCA205 globin-SL8-intron or B16F10 globin-SL8-intron cells. Sarcoma cells are injected in 100 μL sterile PBS while melanoma cells are injected in 50:50 PBS:Matrigel to prevent tumor cell dissemination. Madra.HCl is injected 4, 7, 10 and 14 days post tumor inoculation, in 100 μL H2O+[…] (2-Hydroxypropyl)-β-cyclodextrin (w/v). In the same manner EYP59 (compound 7) is injected 4, 7, 10 and 14 days post tumor inoculation, in 100 μL H2O. Area of the tumor is recorded every 3 to 4 days until the tumor reaches the ethical end points. […] Results are expressed as mean±SEM. *p<0.05, **P<0.01, ***P<0.001 (ANOVA with Tukey's multiple comparison test comparing all groups).

[4] = system: Wild type MCA205 sarcoma cells; assay: Tumor challenge: wild type MCA205 tumors in immunocompetent C57BL/6 mice; type: in vivo, mouse
Method: as §3, §4
Wild type MCA205 sarcoma cells were subcutaneously inoculated into the flank of immunocompetent C57BL/6 mice subsequently injected intratumorally with 2.5 mg/kg of EYP59 at day 4, 7, 10 and 14 post tumor inoculation or intravenously with 5 mg/kg of EYP59 at day 4, 7, 10 and 14 post tumor inoculation. The upper panel A represents the growth curve of wild type MCA205 sarcoma cells, the lower panel A represents the tumor size at day 21. The upper panel B represents the growth curve of wild type MCA205 sarcoma cell, the lower panel B represents the tumor size at day 25. Data are given as mean±SEM. *p<0.05, **p<0.01 (ANOVA with Tukey's multiple comparison test comparing all groups).
as §5

[5] = system: MCA205 globin-SL8-intron cells; assay: Re-challenge of tumor-free mice at day 100 with MCA205 globin-SL8-intron cells; type: in vivo, mouse; details: mice with complete tumor regression after treatment, re-challenged 100 days later, right flank
From the text: (§6) Growth curve of MCA205 globin-SL8-intron cells and B16F10 WT cells inoculated at day 100 into the right and the left flank, respectively, of C57BL/6 mice which experienced complete tumor regression after treatment with Madra.HCl.
(§7) Finally, mice which were inoculated with MCA205 tumor cells expressing the Globin-intron-SL8 construct, and that experienced complete tumor regression after treatment with Madra.HCl as described above were re-challenged 100 days later with MCA205 tumor cells expressing the Globin-intron-SL8 construct on the right flank and with B16F10 tumor cells on the left flank.

B16F10 WT cells = assay: Re-challenge of tumor-free mice at day 100 with B16F10 WT cells; type: in vivo, mouse; details: mice with complete tumor regression after treatment, re-challenged 100 days later, left flank
From the text: as §6, §7

Solubility in water = type: physicochemical
[6] = system: Wild type MCA205 sarcoma cells; assay: Tumor challenge: wild type MCA205 tumors in immunodeficient nu/nu mice; type: in vivo, mouse; details: 20 mg/kg
Method: as §4
In order to assess the requirement of the immune response for this effect, inventors tested the impact of 20 mg/kg EYP59 treatment in immunodeficient nu/nu mice with the same settings as previously described and observed that it has no effect on the tumor growth (FIG. 7D).

SF3B1 = SF3B1 (Homo sapiens, UniProt O75533+Q7RTV0); details: cited from earlier work

COc1ccc2c(C)nc(Nc3nc(C)c(C)c(=O)[nH]3)nc2c1.Cl [Madra.HCl, Madrasin hydrochloride]
PTPs-dependent antigen presentation (B3Z T-cell activation) ([1]; MCA205, 5 μM or 10 μM, dose dependent): increase | PTPs-dependent antigen presentation (B3Z T-cell activation) ([2]; B16F10, 5 μM or 10 μM, dose dependent): increase | survivors ([3]; 20 mg/kg intraperitoneally): around 15% | reduction of tumor growth ([3]; 20 mg/kg intraperitoneally, day 27 after challenge): 50% | survivors ([3]; 40 mg/kg intraperitoneally): around 25% | reduction of tumor growth ([4]; 20 mg/kg intraperitoneally, day 21 after challenge): 40% | reduction of tumor growth ([4]; 40 mg/kg intraperitoneally, day 21 after challenge): 40% | tumor growth after re-challenge [5]: did not grow | tumor growth after re-challenge (B16F10 WT cells): grew over time | solubility in water (Solubility in water): able to be dissolved in water

Cc1nc(Nc2nc(C)c3ccc(OP(=O)(O)O)cc3n2)[nH]c(=O)c1C [EYP59, Sodium 2-((4,5-dimethyl-6-oxo-1,6-dihydropyrimidin-2-yl)amino)-4-methylquinazolin-7-yl Phosphate]
PTP-SL8 presentation (B3Z T-cell activation) ([1]; MCA205, 60 μM, O/N): increase | PTP-SL8 presentation (B3Z T-cell activation) ([2]; B16F10, 60 μM, O/N): increase | reduction of tumor growth ([3]; 20 mg/kg intraperitoneally, day 23 after challenge): 85% | reduction of tumor growth ([4]; 2.5 mg/kg intratumorally, day 21 after challenge): 75% | reduction of tumor growth ([4]; 5 mg/kg intravenously, day 25 after challenge): 80% | reduction of tumor growth ([4]; 20 mg/kg intraperitoneally, day 19 after challenge): 70% | effect on the tumor growth [6]: no effect

CC[C@H](O)[C@@H](C)[C@H]1O[C@@H]1C[C@@](C)(O)/C=C/C=C(\C)[C@H]1OC(=O)C[C@H](O)CC[C@@](C)(O)[C@@H](OC(=O)N2CCN(C3CCCCCC3)CC2)/C=C/[C@@H]1C [E7107]
outcome of testing in human (SF3B1): stopped because of problems of toxicity
